Measured values as given in ChEMBL document CHEMBL4130424, “Synthesis and biological effect of chrom-4-one derivatives as functional inhibitors of heat shock protein 27” (2017).
Calls of active or inactive are those of the source. No cut-off for these calls is given here.

What was measured:
[1] = system: NCI-H460; assay: Induction of apoptosis in human NCI-H460 cells assessed as late apoptotic cells at 10 uM after 24 hrs by Annexin V/propidium iodide double staining-based FACS analysis (reference value: 3.66%); type: functional
[2] = molecular target: Heat shock protein beta-1 (Homo sapiens) (UniProt P04792); assay: Induction of abnormal HSP27 dimerization in human NCI-H460 cells assessed as potentiation of 17-AAG-induced increase in cleaved caspase-7 levels at 10 uM after 24 hrs by Western blot analysis; type: cell-based
Heat shock protein beta-1 (Homo sapiens), sequence (P04792 whole entry): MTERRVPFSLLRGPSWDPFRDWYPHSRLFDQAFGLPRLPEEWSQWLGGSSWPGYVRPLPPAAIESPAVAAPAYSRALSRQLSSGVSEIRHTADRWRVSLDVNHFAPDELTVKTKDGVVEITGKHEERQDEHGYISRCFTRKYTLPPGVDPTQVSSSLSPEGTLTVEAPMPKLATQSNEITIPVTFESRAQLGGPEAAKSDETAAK

[3] = system: NCI-H460; assay: Induction of apoptosis in human NCI-H460 cells assessed as increase in cleaved PARP levels at 10 uM after 12 hrs by Western blot analysis; type: functional, cell-based
[4] = system: NCI-H460; assay: Potentiation of 17-AAG-induced apoptosis in human NCI-H460 cells assessed as late apoptotic cells at 10 uM after 24 hrs by Annexin V/propidium iodide double staining-based FACS analysis (reference value: 7.53%); type: functional
[5] = molecular target: Heat shock protein beta-1 (Homo sapiens) (UniProt P04792); assay: Induction of abnormal recombinant HSP27 (unknown origin) dimerization after 3 hrs by Western blot analysis
[6] = system: NCI-H460; assay: Induction of apoptosis in human NCI-H460 cells assessed as necrotic cells at 10 uM after 24 hrs by Annexin V/propidium iodide double staining-based FACS analysis (reference value: 1.29%); type: functional
[7] = system: NCI-H460; assay: Induction of apoptosis in human NCI-H460 cells assessed as early apoptotic cells at 10 uM after 24 hrs by Annexin V/propidium iodide double staining-based FACS analysis (reference value: 3.84%); type: functional
[8] = system: NCI-H460; assay: Potentiation of 17-AAG-induced apoptosis in human NCI-H460 cells assessed as necrotic cells at 10 uM after 24 hrs by Annexin V/propidium iodide double staining-based FACS analysis (reference value: 1.42%); type: functional
[9] = molecular target: Heat shock protein beta-1 (Homo sapiens) (UniProt P04792); assay: Induction of abnormal HSP27 dimerization in human NCI-H460 cells at 10 uM after 12 hrs by Western blot analysis; type: cell-based
[10] = molecular target: Heat shock protein beta-1 (Homo sapiens) (UniProt P04792); assay: Induction of abnormal HSP27 dimerization in human NCI-H460 cells assessed as potentiation of 17-AAG-induced increase in cleaved PARP levels at 10 uM after 24 hrs by Western blot analysis; type: cell-based
[11] = system: NCI-H460; assay: Potentiation of 17-AAG-induced apoptosis in human NCI-H460 cells assessed as early apoptotic cells at 10 uM after 24 hrs by Annexin V/propidium iodide double staining-based FACS analysis (reference value: 17.86%); type: functional
[12] = system: NCI-H460; assay: Potentiation of 17-AAG-induced antiproliferative activity against human NCI-H460 cells at 10 uM after 24 hrs by EZ-CYTOX cell viability assay; type: functional, cell-based
[13] = molecular target: Heat shock protein beta-1 (Homo sapiens) (UniProt P04792); assay: Induction of abnormal HSP27 dimerization in human NCI-H460 cells at 10 uM co-treated with 17-AAG after 24 hrs by Western blot analysis; type: cell-based
[14] = system: NCI-H460; assay: Induction of apoptosis in human NCI-H460 cells assessed as increase in cleaved caspase-7 levels at 10 uM after 12 hrs by Western blot analysis; type: functional, cell-based
[15] = system: NCI-H460; assay: Potentiation of 17-AAG-induced antiproliferative activity in HSP27-knockdown human NCI-H460 cells at 10 uM after 24 hrs by EZ-CYTOX cell viability assay; type: functional, cell-based
[16] = system: NCI-H460; assay: Potentiation of cisplatin-induced apoptosis in human NCI-H460 cells assessed as early apoptotic cells at 10 uM after 24 hrs by Annexin V/propidium iodide double staining-based FACS analysis (reference value: 7.49%); type: functional
[17] = system: NCI-H460; assay: Induction of apoptosis in human NCI-H460 cells assessed as late apoptotic cells at 10 uM after 24 hrs by Annexin V/propidium iodide double staining-based FACS analysis (reference value: 3.92%); type: functional
[18] = system: NCI-H460; assay: Induction of apoptosis in human NCI-H460 cells assessed as necrotic cells at 10 uM after 24 hrs by Annexin V/propidium iodide double staining-based FACS analysis (reference value: 2.92%); type: functional
[19] = system: NCI-H460; assay: Potentiation of cisplatin-induced apoptosis in human NCI-H460 cells assessed as late apoptotic cells at 10 uM after 24 hrs by Annexin V/propidium iodide double staining-based FACS analysis (reference value: 3.74%); type: functional
[20] = system: NCI-H460; assay: Potentiation of cisplatin-induced apoptosis in human NCI-H460 cells assessed as necrotic cells at 10 uM after 24 hrs by Annexin V/propidium iodide double staining-based FACS analysis (reference value: 2.26%); type: functional
[21] = system: NCI-H460; assay: Induction of apoptosis in human NCI-H460 cells assessed as early apoptotic cells at 10 uM after 24 hrs by Annexin V/propidium iodide double staining-based FACS analysis (reference value: 2.83%); type: functional
[22] = molecular target: Heat shock protein beta-1 (Homo sapiens) (UniProt P04792); assay: Induction of abnormal HSP27 dimerization in human NCI-H460 cells assessed as potentiation of cisplatin-induced increase in cleaved PARP levels at 10 uM after 24 hrs by Western blot analysis; type: cell-based
[23] = molecular target: Heat shock protein beta-1 (Homo sapiens) (UniProt P04792); assay: Induction of abnormal HSP27 dimerization in human NCI-H460 cells assessed as potentiation of 17-AAG-induced antiproliferative activity at 10 uM after 24 hrs by EZ-CYTOX cell viability assay; type: cell-based
[24] = molecular target: Heat shock protein beta-1 (Homo sapiens) (UniProt P04792); assay: Induction of abnormal HSP27 dimerization in human NCI-H460 cells assessed as potentiation of 17-AAG-induced apoptosis by measuring early apoptotic cells at 10 uM after 24 hrs by Annexin V/propidium iodide double staining-based FACS analysis (reference value: 17.86%); type: cell-based
[25] = molecular target: Heat shock protein beta-1 (Homo sapiens) (UniProt P04792); assay: Induction of abnormal HSP27 dimerization in human NCI-H460 cells assessed as potentiation of cisplatin-induced increase in cleaved caspase-7 levels at 10 uM after 24 hrs by Western blot analysis; type: cell-based
[26] = molecular target: Heat shock protein beta-1 (Homo sapiens) (UniProt P04792); assay: Induction of abnormal HSP27 dimerization in human NCI-H460 cells assessed as potentiation of 17-AAG-induced apoptosis by measuring late apoptotic cells at 10 uM after 24 hrs by Annexin V/propidium iodide double staining-based FACS analysis (reference value: 7.53%); type: cell-based
[27] = molecular target: Heat shock protein beta-1 (Homo sapiens) (UniProt P04792); assay: Induction of abnormal HSP27 dimerization in human NCI-H460 cells assessed as potentiation of cisplatin-induced apoptosis by measuring necrotic cells at 10 uM after 24 hrs by Annexin V/propidium iodide double staining-based FACS analysis (reference value: 2.26%); type: cell-based
[28] = molecular target: Heat shock protein beta-1 (Homo sapiens) (UniProt P04792); assay: Induction of abnormal HSP27 dimerization in human NCI-H460 cells assessed as potentiation of cisplatin-induced apoptosis by measuring late apoptotic cells at 10 uM after 24 hrs by Annexin V/propidium iodide double staining-based FACS analysis (reference value: 3.74%); type: cell-based
[29] = molecular target: Heat shock protein beta-1 (Homo sapiens) (UniProt P04792); assay: Induction of abnormal HSP27 dimerization in human NCI-H460 cells assessed as potentiation of cisplatin-induced apoptosis by measuring early apoptotic cells at 10 uM after 24 hrs by Annexin V/propidium iodide double staining-based FACS analysis (reference value: 7.49%); type: cell-based
[30] = molecular target: Heat shock protein beta-1 (Homo sapiens) (UniProt P04792); assay: Induction of abnormal HSP27 dimerization in human NCI-H460 cells assessed as potentiation of 17-AAG-induced apoptosis by measuring necrotic cells at 10 uM after 24 hrs by Annexin V/propidium iodide double staining-based FACS analysis (reference value: 1.42%); type: cell-based
[31] = molecular target: Heat shock protein beta-1 (Homo sapiens) (UniProt P04792); assay: Induction of abnormal HSP27 dimerization in human NCI-H460 cells assessed as potentiation of cisplatin-induced antiproliferative activity at 10 uM after 24 hrs by EZ-CYTOX cell viability assay; type: cell-based

| SMILES | Activity [1] | Activity [2] | Activity [3] | Activity [4] | Activity [5] | Activity [6] | Activity [7] | Activity [8] | Activity [9] | Activity [10] | Activity [11] | Activity [13] | Activity [14] | Activity [15] | Activity [17] | Activity [18] | Activity [21] | also measured |
| --- | --- | --- | --- | --- | --- | --- | --- | --- | --- | --- | --- | --- | --- | --- | --- | --- | --- | --- |
| O=c1cc(-c2ccccc2)oc2cc(OCC3CS3)cc(OCC3CS3)c12 (configuration not stated) | 27.48% | Active | Active | 31.53% | Active | 11.71% | 9.85% | 10.12% | Active | Active | 10.78% | Active | Active | Active |  |  |  | Activity [12]: Active |
| O=c1cc(-c2ccccc2)oc2cc(OCC3CO3)cc(OCC3CO3)c12 (configuration not stated) |  |  |  |  | Active |  |  |  |  |  |  |  |  |  |  |  |  |  |
| O=c1cc(-c2ccccc2)oc2cc(OCC3CS3)cc(O)c12 (configuration not stated) |  |  |  |  | Active |  |  |  |  |  |  |  |  |  |  |  |  |  |
| COc1cc(OCC2CS2)c2c(=O)c3ccccc3oc2c1 (configuration not stated) | 4.04% | inactive |  | 6.65% | inactive | 0.6% | 3.42% | 0.68% |  | inactive | 6.62% |  |  | inactive | 4.27% | 3.6% | 3.41% | Activity [16]: 7.29%; Activity [19]: 4.81%; Activity [20]: 2.45% |
| O=c1c2ccccc2oc2cc(OCC3CS3)cc(OCC3CS3)c12 (configuration not stated) | 8.13% | Active | Active | 20.69% | Active | 3.38% | 8.67% | 5.18% | Active | Active | 21.99% | Active | Active | Active |  |  |  | Activity [12]: Active |
| O=c1cc(-c2ccccc2)oc2cc(OCC3CO3)cc(O)c12 (configuration not stated) |  |  |  |  | inactive |  |  |  |  |  |  |  |  |  |  |  |  |  |
| Cc1cc(=O)c2c(OCC3CS3)cc(OCC3CS3)cc2o1 (configuration not stated) | 4.5% | Active | Active |  | Active | 2.37% | 3.49% |  | Active | Active |  | Active | Active | inactive | 3.53% | 2.67% | 6.25% | Activity [22]: Active; Activity [23]: Active; Activity [24]: 18%; Activity [25]: Active; Activity [26]: 13%; Activity [27]: 2.91%; Activity [28]: 6.44%; Activity [29]: 11.1%; Activity [30]: 5.37%; Activity [31]: Active |
| Cc1cc(=O)c2c(O)cc(OCC3CS3)cc2o1 (configuration not stated) | 5.9% | Active | Active |  | Active | 1.97% | 3.47% |  | Active | Active |  | Active | Active | inactive | 5.21% | 1.89% | 4.73% | Activity [22]: Active; Activity [23]: Active; Activity [24]: 18.6%; Activity [25]: Active; Activity [26]: 16.5%; Activity [27]: 2.11%; Activity [28]: 4.52%; Activity [29]: 9.47%; Activity [30]: 3.87%; Activity [31]: Active |
